Reference: US8476317B2, “N-alkylcarbonyl-amino acid ester compounds and their use for cough and pharyngitis” (priority 2011, dated 2013)

Key:
Format in all cases: in vivo, human
[1] = tested on: ocular surface; assay: Eye wipe test, duration of cooling on ocular surface; conditions: eye wipes 1 mg/ml in 5%-95% v/v ethanol-distilled water
Method: To further document the activities fo the test molecules, the results from an eye wipe test was included. Here the test substance is applied to the closed eyelids with a towelette at a concentration of 1 mg/ml in 5%-ethanol-95%-distilled water vol/vol and the duration of cooling on the ocular surface was recorded. […] It is likely that the mucous membranes that line the ocular surface and the pharynx have similar sensory mechanisms that are somewhat different from the philtrum skin which is keratinized.

[2] = tested on: pharyngeal surface; assay: Chili-pepper sauce cough challenge test; set-up: key: If there is no attenuation of the challenge stimuli, the score is 0; if there is partial inhibition, the score is +; if there is complete attenuation of the cough signal, the score is ++; conditions: challenge 45 to 50 min after ODT containing 2 mg of test substance
From the text: A number of cough challenge methods have been devised for evoking the cough reflex (Morice et al. Briti. J. Clin. Pharmacol. 52: 365-375, 2001). Usually, citric acid or capsaicin is delivered via the inhalation route to volunteers and the number of coughs counted. […] The chili pepper sauce used here is called Yank Sing® Chili Pepper Sauce (YS Gourmet Productions, Inc., PO Box 26189, San Francisco, Calif. 94126) and is a well-known condiment for use with dim sum (Chinese tea lunch). The sensations associated with the chili pepper sauce are located in the back of the mouth and are clearly recognized and associated with a desire to clear the throat. […] To test for anti-cough activity the ODT with the test substance is first administered onto the dorsal surface of the tongue and 45 to 50 min afterwards the chili-pepper sauce test is administered. If there is no attenuation of the challenge stimuli, the score is 0, if there is partial inhibition, the score is +, and if there is complete attenuation of the cough signal, the score is ++. In the presence of an ODT that results in a ++ score, the irritative signals are completely absent, yet the salty taste used in the soy sauce of the condiment can still be easily tasted. The test substances in the ODT that produced a ++ score were then identified and further tested for effectiveness in the treatment of cough.

[3] = tested on: cough; conditions: for cooling action of ODT on the pharyngeal surface: Study 6, ODT; for effectiveness in reducing cough: Study 6, ODT 2.0 to 2.5 mg, 14 adult males with cough
Method: In 20 trials, 10 trials per subject, two mg of 95%+ pure powder of a D-Ala ethyl compound (No. 2 in Table 1, (R)-2-[((1R,2S,5R)-2-isopropyl-5-methyl-cyclohexanecarbonyl)-amino]-propionic acid ethyl ester)) of Formula (1) was placed on the mid-portion of the tongue of these two subjects. Both subjects reported relief from the desire to cough within 1 minute after application. Sensations of robust coolness in the back of the throat was noted and lasted for about 30 minutes. Applications of similar amounts of powdered sugar were not effective. The placebo could be clearly distinguished from the active compound because of the absence of cooling sensations.
A person with a documented 31-year history of asthma attacks volunteered to test one of the compounds falling within Formula (1). They were extremely sensitive to agents such as tobacco smoke, dust, pollen, odors, down/woolen materials, house cleansing products, pets, and sudden change of air temperature, and reacted with violent coughing, mucus secretions, wheezing, choking, and shortness of breath. At the time of this trial, they were taking these medications for their condition: theophylline, Allegra®, Advair®, Intal®, and Singulair®. In 5 trials, during a coughing spree, they placed one to two mg of 95%+ pure powder of a D-Ala ethyl ester (No. 2 in Table 1, ((R)-2-[((1R,2S,5R)-2-isopropyl-5-methyl-cyclohexanecarbonyl)-amino]-propionic acid ethyl ester))) of Formula (1) on the mid-portion of their tongue. They reported a soothing and cool sensation with a slight taste similar to Eucalyptus oil in their mouth and throat. Coughing stopped after 3 to 5 minutes and breathing was normal. […] In three trials when the compound was applied at night, they slept through the night without being awakened by cough. Their spouse remarked that, in over 30 years of marriage, this was the first time that they had seen an effective medication for their cough. They noted that the irritative signals of cough were absent in the presence of the applied chemical, but they still sensed a mechanical build up of secretions in their airways and could voluntarily cough up such secretions if necessary. They continue to use the test compound for management of their asthma, with the knowledge and consent of their physician.
A person had adult-onset asthma for 20 years. Triggers for attacks were tobacco smoke, dust, and changes in air temperature. They used Foradil® (formoterol fumarate) and Asmanex® (mometasone fuorate) twice a day to control their asthma, and monitored their pulmonary function with a portable device for measuring peak expiratory flow. They had daily episodes of both productive and non-productive cough. In 5 trials, when they felt throat irritation and a desire to cough, placement of 1 to 3 mg of (R)-2-[((1R,2S,5R)-2-isopropyl-5-methyl-cyclohexanecarbonyl)-amino]-propionic acid ethyl ester) (No. 2 in Table 1) provided rapid relief and was described as soothing and removed “tightness” in the chest. Peak expiratory flow improved from 320 Umin to 370 Umin. […] The subjective response to the long-acting NACE compound was definitely favourable. The subject remarked that the best time to use the NACE compuound was after inhaling the crystalline Foradil® because this inhaled drug irritated their throat.
ODT containing 2.0 to 2.5 mg of D-Aa Me Ester, D-Ala Et Ester, or D-Ala iPr Ester (identified chemically in Table 1 as No. 1, No. 2, and No. 3, respectively) were prepared using mannitol/maltitol as the excipient and stored in tic-tac boxes each containing 10 tablets. Over a course of two years, 14 adult males with cough tested these tablets. The causes of coughing were colds/flu, allergies, pharyngitis, excessive smoking, and two cases of gastroesophageal reflux. These individuals all had advanced degrees (M.D. or Ph.D.) and were motivated to try the tablets by scientific curiosity or because of financial interests in drug development, or, in several cases, by the annoyance caused by the cough. […]

CCOC(=O)[C@@H](C)NC(=O)[C@@H]1C[C@H](C)CC[C@H]1C(C)C [D-Ala-OEt, (R)-2-[((1R,2S,5R)-2-isopropyl-5-methyl-cyclohexanecarbonyl)-amino]-propionic acid ethyl ester]
Eyelids/Ocular Surface (min), duration of cooling [1]: 180 min | Chili-Pepper Sauce Test [2]: ++ | duration of absence of irritation and itching at the back of the throat (cough signals) ([3]; Study 3): 4 to 5 h | time individual was observed not to cough ([3]; Study 3): 6 to 8 h | time desire to cough was removed ([3]; Study 3, after 4 or 6 applications within 2 days): at least 5 days | time to relief from the desire to cough ([3]; Study 3, two cigar smokers, two mg powder on tongue): ≤ 1 min | duration of robust coolness in the back of the throat ([3]; Study 3, two mg powder on tongue): about 30 minutes | time until coughing stopped ([3]; Study 4, asthmatic, one to two mg on tongue): 3 to 5 min | recurrence of asthmatic coughing attacks ([3]; Study 4, continued use): have not recurred with any severity for one month | effect when given in the midst of a productive cough spell ([3]; Study 5, 3 episodes): no significant effects were observed | relief of throat irritation and desire to cough ([3]; Study 5, 5 trials, 1 to 3 mg): rapid relief | Peak expiratory flow ([3]; Study 5, asthmatic, 1 to 3 mg, improved from 320): 370 Umin | cooling action of ODT on the pharyngeal surface [3]: robust cooling action | effectiveness in reducing cough [3]: 100% | side-effects ([3]; human, in vivo): did not sense any build up of mucus or other side-effects

COC(=O)[C@@H](C)NC(=O)[C@@H]1C[C@H](C)CC[C@H]1C(C)C [D-Ala-OMe, (R)-2-[((1R,2S,5R)-2-isopropyl-5-methyl-cyclohexanecarbonyl)-amino]-propionic acid methyl ester]
Eyelids/Ocular Surface (min), duration of cooling [1]: 120 min | Chili-Pepper Sauce Test [2]: ++ | cooling action of ODT on the pharyngeal surface [3]: robust cooling action | effectiveness in reducing cough [3]: 100%

CCOC(=O)C(C)NC(=O)[C@@H]1C[C@H](C)CC[C@H]1C(C)C (stereo partly drawn) [L-Ala-OEt]
Eyelids/Ocular Surface (min), duration of cooling [1]: 0 min | Chili-Pepper Sauce Test [2]: 0 | cooling action of ODT on the pharyngeal surface [3]: inactive
